Here are results for 13 molecules from ChEMBL document CHEMBL3425462, “N-Arylmethylaminoquercitols, a new series of effective antidiabetic agents having α-glucosidase inhibition and antioxidant activity” (Bioorg Med Chem Lett, 2015).

pIC50: −log10 of the molar value.

Data set [1] in a line: Inhibition of baker's yeast alpha-glucosidase. Also on record: species or system Saccharomyces cerevisiae.
A short description of data set [2]: Antioxidant activity of the compound assessed as DPPH radical scavenging activity incubated in dark condition for 15 mins by colorimetric method. The following applies: 0.25 h. In kind it is physicochemical.
For the next data set, the system named is Saccharomyces cerevisiae. In words: Inhibition of baker's yeast alpha-glucosidase at 10 mg/ml relative to control.
Data set [3] is described as follows: Antioxidant activity of the compound assessed as DPPH radical scavenging activity at 5 mg/ml incubated in dark condition for 15 mins by colorimetric method relative to control. In kind it is physicochemical. As to conditions: 0.25 h.

The molecule `Oc1ccc(CN[C@H]2C[C@@H](O)[C@H](O)[C@@H](O)[C@H]2O)cc1` had a pIC50 in data set [1] of 3.96. Also, the SC50 in data set [2] was 16.2 mM.

The molecule `O[C@@H]1[C@@H](O)[C@H](O)C[C@H](NCc2cccs2)[C@@H]1O` came in with an inhibition with Saccharomyces cerevisiae of under 30%. For the same molecule, the Activity in data set [3] is given as under 20%.

`O[C@@H]1[C@@H](O)[C@H](O)C[C@H](NCc2cccnc2)[C@@H]1O` yielded an inhibition in the data set with Saccharomyces cerevisiae of under 30%. Besides, the Activity in data set [3] was under 20%.

`COc1cc(CN[C@H]2C[C@@H](O)[C@H](O)[C@@H](O)[C@H]2O)ccc1O`: the negative-log IC50 (pIC50) in data set [1] was 4.03. Further, in data set [2], the SC50 turned out to be 2.1 mM.

Molecule `O[C@@H]1[C@@H](O)[C@H](O)C[C@H](NCCc2ccccc2)[C@@H]1O` gave a pIC50 in data set [1] of 2.87. In data set [3], the Activity was under 20%.

Regarding `CC(C)(C)c1cc(CN[C@H]2C[C@@H](O)[C@H](O)[C@@H](O)[C@H]2O)cc(C(C)(C)C)c1O`, the pIC50 in data set [1] was 4.05. Further, in data set [2], the SC50 came out at 0.4 mM.

With `OC(CN[C@H]1C[C@@H](O)[C@H](O)[C@@H](O)[C@H]1O)c1ccccc1` (stereo partly drawn), the pIC50 in data set [1] is 2.52. In addition, the Activity in data set [3] is reported as under 20%.

Consider `N[C@H]1C[C@@H](O)[C@H](O)[C@@H](O)[C@H]1O`, for which, in data set [1], the pIC50 was 2.54. Besides, in data set [3], the Activity was under 20%.

For the molecule `C[C@H]1O[C@H](O[C@H]2[C@H](O)[C@@H](O)[C@@H](O[C@H]3[C@H](O)[C@@H](O)C(O)O[C@@H]3CO)O[C@@H]2CO)[C@H](O)[C@@H](O)[C@@H]1N[C@H]1C=C(CO)[C@@H](O)[C@H](O)[C@H]1O` (stereo partly drawn) [ACARBOSE], the pIC50 in data set [1] is 3.32. For the same molecule, in data set [3], the Activity was under 20%.

Regarding `O[C@@H]1[C@@H](O)[C@H](O)C[C@H](NCc2ccc(Br)cc2)[C@@H]1O`, the negative-log IC50 (pIC50) in data set [1] was 2.50. Moreover, in data set [3], the Activity was under 20%.

Regarding `O=Cc1ccc(O)cc1` [4-HYDROXYBENZALDEHYDE], the Activity in data set [3] is listed as under 20%.

Consider `COc1cc(C=O)ccc1O` [VANILLIN], for which the SC50 in data set [2] came out at 4.9 mM.

In the case of `CC(C)(C)c1cc(C=O)cc(C(C)(C)C)c1O`, in data set [2], the SC50 was 1.4 mM.
